Measured values from article PMC8539420, “Discovery of a Potent and Selective JNK3 Inhibitor with Neuroprotective Effect Against Amyloid β-Induced Neurotoxicity in Primary Rat Neurons” (International Journal of Molecular Sciences, 2021).

Key:
Assay type in all cases: biochemical
[1] = biological target: T1, TRKC (Homo sapiens, UniProt Q16288); experiment: Kinase panel screening 1 μM; conditions: read-out: enzymatic inhibition TRKC
T1 construct: purchased Reaction Biology Corp. (Kinase HotSpot)

[2] = biological target: T2, BTK (Homo sapiens, UniProt Q06187); experiment: Kinase panel screening 1 μM; conditions: read-out: enzymatic inhibition BTK
T2 construct: purchased Reaction Biology Corp. (Kinase HotSpot)

[3] = biological target: T3, c-MER (Homo sapiens, UniProt Q12866); experiment: Kinase panel screening 1 μM; conditions: read-out: enzymatic inhibition c-MER
T3 construct: purchased Reaction Biology Corp. (Kinase HotSpot)

[4] = biological target: T4, FMS (Homo sapiens, UniProt P07333); experiment: Kinase panel screening 1 μM; conditions: read-out: enzymatic inhibition FMS
T4 construct: purchased Reaction Biology Corp. (Kinase HotSpot)

[5] = biological target: T5, JAK3 (Homo sapiens, UniProt P52333); experiment: Kinase panel screening 1 μM; conditions: read-out: enzymatic inhibition JAK3
T5 construct: purchased Reaction Biology Corp. (Kinase HotSpot)

[6] = biological target: T6, PDK1/PDHK1 (Homo sapiens, UniProt Q15118); experiment: Kinase panel screening 1 μM; conditions: read-out: enzymatic inhibition PDK1/PDHK1
T6 construct: purchased Reaction Biology Corp. (Kinase HotSpot)

[7] = biological target: T7, LCK (Homo sapiens, UniProt P06239); experiment: Kinase panel screening 1 μM; conditions: read-out: enzymatic inhibition LCK
T7 construct: purchased Reaction Biology Corp. (Kinase HotSpot)

[8] = biological target: T8, ERK1 (Homo sapiens, UniProt P27361); experiment: Kinase panel screening 1 μM; conditions: read-out: enzymatic inhibition ERK1
T8 construct: purchased Reaction Biology Corp. (Kinase HotSpot)

[9] = biological target: T9, PKA (Homo sapiens, UniProt P17612); experiment: Kinase panel screening 1 μM; conditions: read-out: enzymatic inhibition PKA
T9 construct: purchased Reaction Biology Corp. (Kinase HotSpot)

[10] = biological target: T10, c-MET (Homo sapiens, UniProt P08581); experiment: Kinase panel screening 1 μM; conditions: read-out: enzymatic inhibition c-MET
T10 construct: purchased Reaction Biology Corp. (Kinase HotSpot)

[11] = biological target: T11, AXL (R499C) (Homo sapiens, UniProt P30530, R499C); experiment: Kinase panel screening 1 μM; conditions: read-out: enzymatic inhibition AXL (R499C)
T11 construct: purchased Reaction Biology Corp. (Kinase HotSpot)

[12] = biological target: T12, IGF1R (Homo sapiens, UniProt P08069); experiment: Kinase panel screening 1 μM; conditions: read-out: enzymatic inhibition IGF1R
T12 construct: purchased Reaction Biology Corp. (Kinase HotSpot)

[13] = biological target: T13, AKT1 (Homo sapiens, UniProt P31749); experiment: Kinase panel screening 1 μM; conditions: read-out: enzymatic inhibition AKT1
T13 construct: purchased Reaction Biology Corp. (Kinase HotSpot)

[14] = biological target: T14, LYN (Homo sapiens, UniProt P07948); experiment: Kinase panel screening 1 μM; conditions: read-out: enzymatic inhibition LYN
T14 construct: purchased Reaction Biology Corp. (Kinase HotSpot)

[15] = biological target: T15, TYRO3/SKY (Homo sapiens, UniProt Q06418); experiment: Kinase panel screening 1 μM; conditions: read-out: enzymatic inhibition TYRO3/SKY
T15 construct: purchased Reaction Biology Corp. (Kinase HotSpot)

[16] = biological target: T16, JNK1 (Homo sapiens, UniProt P45983); experiment: Kinase HotSpot assay, JNK1
T16 construct: purchased Reaction Biology Corp

[17] = biological target: T17, PLK1 (Homo sapiens, UniProt P53350); experiment: Kinase panel screening 1 μM; conditions: read-out: enzymatic inhibition PLK1
T17 construct: purchased Reaction Biology Corp. (Kinase HotSpot)

[18] = biological target: T18, ROS/ROS1 (Homo sapiens, UniProt P08922); experiment: Kinase panel screening 1 μM; conditions: read-out: enzymatic inhibition ROS/ROS1
T18 construct: purchased Reaction Biology Corp. (Kinase HotSpot)

[19] = biological target: T19, BRAF (V599E) (Homo sapiens, UniProt P15056, V600E); experiment: Kinase panel screening 1 μM; conditions: read-out: enzymatic inhibition BRAF (V599E)
T19 construct: purchased Reaction Biology Corp. (Kinase HotSpot)

[20] = biological target: T20, c-Src (Homo sapiens, UniProt P12931); experiment: Kinase panel screening 1 μM; conditions: read-out: enzymatic inhibition c-Src
T20 construct: purchased Reaction Biology Corp. (Kinase HotSpot)

[21] = biological target: T21, MEK1 (Homo sapiens, UniProt Q02750); experiment: Kinase panel screening 1 μM; conditions: read-out: enzymatic inhibition MEK1
T21 construct: purchased Reaction Biology Corp. (Kinase HotSpot)

[22] = biological target: T22, c-Kit (Homo sapiens, UniProt P10721); experiment: Kinase panel screening 1 μM; conditions: read-out: enzymatic inhibition c-Kit
T22 construct: purchased Reaction Biology Corp. (Kinase HotSpot)

[23] = biological target: T23, FGFR3 (Homo sapiens, UniProt P22607); experiment: Kinase panel screening 1 μM; conditions: read-out: enzymatic inhibition FGFR3
T23 construct: purchased Reaction Biology Corp. (Kinase HotSpot)

[24] = biological target: T24, ABL1 (Homo sapiens, UniProt P00519); experiment: Kinase panel screening 1 μM; conditions: read-out: enzymatic inhibition ABL1
T24 construct: purchased Reaction Biology Corp. (Kinase HotSpot)

[25] = biological target: T25, RON/MST1R (Homo sapiens, UniProt Q04912); experiment: Kinase panel screening 1 μM; conditions: read-out: enzymatic inhibition RON/MST1R
T25 construct: purchased Reaction Biology Corp. (Kinase HotSpot)

[26] = biological target: T26, CDK1/cyclin A (Homo sapiens, UniProt P06493); experiment: Kinase panel screening 1 μM; conditions: read-out: enzymatic inhibition CDK1/cyclin A
T26 construct: purchased Reaction Biology Corp. (Kinase HotSpot)

[27] = biological target: T27, JNK2 (Homo sapiens, UniProt P45984); experiment: Kinase HotSpot assay, JNK2
T27 construct: purchased Reaction Biology Corp

[28] = biological target: T28, KDR/VEGFR2 (Homo sapiens, UniProt P35968); experiment: Kinase panel screening 1 μM; conditions: read-out: enzymatic inhibition KDR/VEGFR2
T28 construct: purchased Reaction Biology Corp. (Kinase HotSpot)

[29] = system: over 38 kinases; experiment: Kinase panel screening, single dose 1 μM, whole panel; conditions: duplicate
[30] = biological target: T29, CAMKK1 (Homo sapiens, UniProt Q8N5S9); experiment: Kinase panel screening 1 μM; conditions: read-out: enzymatic inhibition CAMKK1
T29 construct: purchased Reaction Biology Corp. (Kinase HotSpot)

[31] = biological target: T30, SYK (Homo sapiens, UniProt P43405); experiment: Kinase panel screening 1 μM; conditions: read-out: enzymatic inhibition SYK
T30 construct: purchased Reaction Biology Corp. (Kinase HotSpot)

[32] = biological target: T31, GSK3β (Homo sapiens, UniProt P49841); experiment: Kinase HotSpot assay, GSK3β
T31 construct: purchased Reaction Biology Corp

[33] = biological target: T32, JNK3(h) (Homo sapiens, UniProt P53779); experiment: Kinase HotSpot radiometric assay, JNK3
T32 construct: purchased Reaction Biology Corp

[34] = biological target: T33, FYN (Homo sapiens, UniProt P06241); experiment: Kinase panel screening 1 μM; conditions: read-out: enzymatic inhibition FYN
T33 construct: purchased Reaction Biology Corp. (Kinase HotSpot)
T33 sequence (P06241 whole entry): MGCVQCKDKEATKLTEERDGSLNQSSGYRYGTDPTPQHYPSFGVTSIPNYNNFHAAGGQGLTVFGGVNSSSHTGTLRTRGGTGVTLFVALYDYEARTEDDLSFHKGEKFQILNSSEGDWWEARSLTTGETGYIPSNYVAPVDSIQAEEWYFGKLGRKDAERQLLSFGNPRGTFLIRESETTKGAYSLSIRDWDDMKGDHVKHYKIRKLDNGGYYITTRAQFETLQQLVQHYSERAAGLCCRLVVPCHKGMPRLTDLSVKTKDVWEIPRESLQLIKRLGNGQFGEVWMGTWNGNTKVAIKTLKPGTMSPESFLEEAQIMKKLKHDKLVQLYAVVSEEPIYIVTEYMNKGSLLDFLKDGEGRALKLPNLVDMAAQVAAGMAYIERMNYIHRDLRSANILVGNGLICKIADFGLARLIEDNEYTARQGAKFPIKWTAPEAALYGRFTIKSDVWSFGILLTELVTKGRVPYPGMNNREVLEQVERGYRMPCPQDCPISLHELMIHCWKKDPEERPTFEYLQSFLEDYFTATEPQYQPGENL

T31 sequence (P49841 whole entry): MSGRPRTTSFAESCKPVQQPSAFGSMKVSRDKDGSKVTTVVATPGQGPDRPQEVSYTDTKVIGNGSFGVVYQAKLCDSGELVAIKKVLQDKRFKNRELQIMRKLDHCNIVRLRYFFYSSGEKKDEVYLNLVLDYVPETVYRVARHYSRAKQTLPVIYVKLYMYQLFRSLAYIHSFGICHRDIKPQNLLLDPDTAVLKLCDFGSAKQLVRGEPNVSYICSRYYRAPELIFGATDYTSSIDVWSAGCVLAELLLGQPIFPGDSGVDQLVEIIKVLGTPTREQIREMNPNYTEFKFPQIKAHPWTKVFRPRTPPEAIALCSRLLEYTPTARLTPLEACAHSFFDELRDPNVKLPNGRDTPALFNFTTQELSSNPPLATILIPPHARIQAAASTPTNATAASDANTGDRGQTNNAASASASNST
T16 sequence (P45983 whole entry): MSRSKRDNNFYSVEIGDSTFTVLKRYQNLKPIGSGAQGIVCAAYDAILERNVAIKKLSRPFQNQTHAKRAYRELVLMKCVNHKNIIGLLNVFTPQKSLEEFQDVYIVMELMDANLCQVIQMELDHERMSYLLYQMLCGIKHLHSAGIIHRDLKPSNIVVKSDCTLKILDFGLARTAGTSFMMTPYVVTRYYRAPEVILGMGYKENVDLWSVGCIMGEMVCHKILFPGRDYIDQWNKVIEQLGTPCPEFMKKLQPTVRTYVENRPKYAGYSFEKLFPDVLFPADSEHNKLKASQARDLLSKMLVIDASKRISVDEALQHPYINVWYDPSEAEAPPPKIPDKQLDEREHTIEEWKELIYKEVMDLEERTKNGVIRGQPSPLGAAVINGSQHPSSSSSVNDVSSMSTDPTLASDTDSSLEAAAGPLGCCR
T32 sequence (P53779 whole entry): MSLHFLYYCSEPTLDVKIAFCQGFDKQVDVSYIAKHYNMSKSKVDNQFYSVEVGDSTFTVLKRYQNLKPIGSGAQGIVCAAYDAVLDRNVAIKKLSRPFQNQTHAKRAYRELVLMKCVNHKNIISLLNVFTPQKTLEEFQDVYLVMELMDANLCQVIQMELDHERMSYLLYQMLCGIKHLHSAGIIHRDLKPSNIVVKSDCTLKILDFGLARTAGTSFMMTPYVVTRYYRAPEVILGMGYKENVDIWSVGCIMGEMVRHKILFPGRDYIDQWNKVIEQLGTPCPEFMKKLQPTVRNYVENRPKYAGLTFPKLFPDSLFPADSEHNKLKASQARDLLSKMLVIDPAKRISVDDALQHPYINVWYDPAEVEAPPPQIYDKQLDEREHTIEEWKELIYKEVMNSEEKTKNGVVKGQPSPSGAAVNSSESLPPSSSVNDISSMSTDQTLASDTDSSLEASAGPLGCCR
T27 sequence (P45984 whole entry): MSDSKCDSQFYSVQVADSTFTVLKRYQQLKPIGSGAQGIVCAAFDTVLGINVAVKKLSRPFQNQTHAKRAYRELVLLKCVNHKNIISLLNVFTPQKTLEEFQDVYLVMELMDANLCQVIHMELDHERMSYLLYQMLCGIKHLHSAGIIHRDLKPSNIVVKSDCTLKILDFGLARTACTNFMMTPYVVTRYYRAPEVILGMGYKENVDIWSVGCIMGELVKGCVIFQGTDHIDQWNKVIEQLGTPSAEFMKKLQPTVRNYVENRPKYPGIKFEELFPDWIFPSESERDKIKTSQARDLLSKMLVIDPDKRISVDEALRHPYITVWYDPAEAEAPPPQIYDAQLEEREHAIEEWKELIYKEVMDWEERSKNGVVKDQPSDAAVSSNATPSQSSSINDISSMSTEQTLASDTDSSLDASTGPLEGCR
T15 sequence (Q06418 41-890): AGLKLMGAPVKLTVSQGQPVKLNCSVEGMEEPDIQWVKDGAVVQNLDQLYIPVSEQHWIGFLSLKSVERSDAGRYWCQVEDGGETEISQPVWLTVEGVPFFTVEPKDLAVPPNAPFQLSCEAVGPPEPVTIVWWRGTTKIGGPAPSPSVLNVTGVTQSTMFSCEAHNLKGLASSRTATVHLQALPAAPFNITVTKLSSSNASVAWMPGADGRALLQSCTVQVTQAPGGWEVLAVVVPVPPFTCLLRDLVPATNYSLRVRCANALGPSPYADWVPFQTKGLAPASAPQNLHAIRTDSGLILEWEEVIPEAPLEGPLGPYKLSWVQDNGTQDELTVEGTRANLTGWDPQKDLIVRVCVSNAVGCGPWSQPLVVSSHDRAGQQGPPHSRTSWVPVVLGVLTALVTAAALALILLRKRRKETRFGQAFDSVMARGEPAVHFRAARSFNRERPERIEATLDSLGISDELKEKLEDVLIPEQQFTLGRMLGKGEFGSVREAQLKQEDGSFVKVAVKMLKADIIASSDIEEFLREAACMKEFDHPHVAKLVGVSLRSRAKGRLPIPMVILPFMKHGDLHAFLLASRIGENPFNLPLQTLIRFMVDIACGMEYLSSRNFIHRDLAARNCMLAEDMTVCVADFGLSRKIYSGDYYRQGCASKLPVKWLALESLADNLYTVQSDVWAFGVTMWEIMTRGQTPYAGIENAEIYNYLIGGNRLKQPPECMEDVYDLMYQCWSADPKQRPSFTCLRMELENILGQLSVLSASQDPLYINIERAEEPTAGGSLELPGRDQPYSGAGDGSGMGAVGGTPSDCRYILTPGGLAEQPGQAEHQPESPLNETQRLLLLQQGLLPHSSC
T23 sequence (P22607 23-806): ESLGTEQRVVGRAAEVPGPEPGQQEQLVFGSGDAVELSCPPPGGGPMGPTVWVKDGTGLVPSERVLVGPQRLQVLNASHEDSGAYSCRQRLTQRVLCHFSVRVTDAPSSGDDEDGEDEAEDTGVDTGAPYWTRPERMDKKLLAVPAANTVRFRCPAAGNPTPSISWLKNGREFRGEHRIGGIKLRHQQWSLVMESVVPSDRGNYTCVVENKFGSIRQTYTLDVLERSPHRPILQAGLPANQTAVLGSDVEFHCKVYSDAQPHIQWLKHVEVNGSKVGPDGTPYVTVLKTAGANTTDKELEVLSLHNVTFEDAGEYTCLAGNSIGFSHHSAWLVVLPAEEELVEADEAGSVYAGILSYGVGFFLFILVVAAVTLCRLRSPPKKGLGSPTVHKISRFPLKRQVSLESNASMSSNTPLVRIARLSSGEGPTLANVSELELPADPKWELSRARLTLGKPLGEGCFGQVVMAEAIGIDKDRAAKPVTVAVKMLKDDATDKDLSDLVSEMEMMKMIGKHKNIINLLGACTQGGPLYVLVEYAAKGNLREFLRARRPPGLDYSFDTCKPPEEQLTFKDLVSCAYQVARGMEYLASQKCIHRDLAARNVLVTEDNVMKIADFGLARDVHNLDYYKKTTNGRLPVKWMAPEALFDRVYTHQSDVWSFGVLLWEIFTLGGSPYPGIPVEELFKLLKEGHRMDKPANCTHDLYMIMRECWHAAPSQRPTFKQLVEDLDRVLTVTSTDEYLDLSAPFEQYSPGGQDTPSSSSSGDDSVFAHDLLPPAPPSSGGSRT
T13 sequence (P31749 whole entry): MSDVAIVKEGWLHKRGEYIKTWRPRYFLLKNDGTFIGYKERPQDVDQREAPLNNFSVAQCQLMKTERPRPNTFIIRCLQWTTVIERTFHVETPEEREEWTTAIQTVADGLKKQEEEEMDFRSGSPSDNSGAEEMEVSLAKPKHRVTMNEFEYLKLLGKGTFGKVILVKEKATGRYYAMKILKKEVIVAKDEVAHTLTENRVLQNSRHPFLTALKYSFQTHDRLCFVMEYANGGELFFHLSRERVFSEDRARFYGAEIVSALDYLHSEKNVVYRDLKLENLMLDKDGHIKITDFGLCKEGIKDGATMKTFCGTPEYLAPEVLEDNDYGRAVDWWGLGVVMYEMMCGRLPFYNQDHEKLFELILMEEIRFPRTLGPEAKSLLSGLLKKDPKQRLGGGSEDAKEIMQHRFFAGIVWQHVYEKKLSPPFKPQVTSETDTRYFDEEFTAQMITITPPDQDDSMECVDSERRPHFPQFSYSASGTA
T20 sequence (P12931 whole entry): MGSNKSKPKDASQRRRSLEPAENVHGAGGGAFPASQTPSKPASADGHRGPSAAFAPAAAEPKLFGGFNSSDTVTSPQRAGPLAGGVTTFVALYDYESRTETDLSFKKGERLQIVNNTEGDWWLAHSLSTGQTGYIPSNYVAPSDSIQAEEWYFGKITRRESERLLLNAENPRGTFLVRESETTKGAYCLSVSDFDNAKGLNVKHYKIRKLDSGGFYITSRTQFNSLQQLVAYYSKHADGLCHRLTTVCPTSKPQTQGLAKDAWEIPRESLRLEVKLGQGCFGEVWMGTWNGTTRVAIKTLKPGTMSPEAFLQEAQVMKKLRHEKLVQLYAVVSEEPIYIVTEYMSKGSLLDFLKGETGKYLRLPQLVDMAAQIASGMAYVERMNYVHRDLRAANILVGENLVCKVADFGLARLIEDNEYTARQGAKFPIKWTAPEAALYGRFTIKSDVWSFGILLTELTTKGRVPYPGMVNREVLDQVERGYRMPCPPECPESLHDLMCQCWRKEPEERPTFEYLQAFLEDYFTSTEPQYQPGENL

inhibition at 1 µM [1]: 8.78%
inhibition at 1 µM [2]: 9.53%
inhibition at 1 µM [3]: 2.29%
inhibition at 1 µM [4]: 8.11%
inhibition at 1 µM [5]: 10.7%
inhibition at 1 µM [6]: 0%
inhibition at 1 µM [7]: 7.63%
inhibition at 1 µM [8]: 0%
inhibition at 1 µM [9]: 0%
inhibition at 1 µM [10]: 0%
inhibition at 1 µM [11]: 0.64%
inhibition at 1 µM [12]: 13.4%
inhibition at 1 µM [13]: 0%
inhibition at 1 µM [14]: 10.8%
inhibition at 1 µM [15]: 0%
IC50 [16]: > 10000 nM
inhibition at 1 µM ([16]; 1 μM, read-out: enzymatic inhibition JNK1): 9%
selectivity over JNK1 ([16]; JNK3 versus JNK1): > 1000 fold
inhibition at 1 µM [17]: 0%
inhibition at 1 µM [18]: 0%
inhibition at 1 µM [19]: 0%
inhibition at 1 µM [20]: 19.3%
inhibition at 1 µM [21]: 0%
inhibition at 1 µM [22]: 0%
inhibition at 1 µM [23]: 25.9%
inhibition at 1 µM [24]: 20.5%
inhibition at 1 µM [25]: 0%
inhibition at 1 µM [26]: 0%
IC50 [27]: 898 nM
inhibition at 1 µM ([27]; 1 μM, read-out: enzymatic inhibition JNK2): 38%
inhibition at 1 µM [28]: 5.49%
inhibition activity for most other kinases [29]: less than 15%
inhibition at 1 µM [30]: 0%
inhibition at 1 µM [31]: 1.73%
IC50 [32]: 5850 nM
inhibition at 1 µM ([32]; 1 μM, read-out: enzymatic inhibition GSK3b): 85.5%
Selectivity/JNK3 ([32]; GSK3β IC50 in comparison with JNK3): >600 fold
inhibition at 1 µM ([33]; 1 μM, read-out: enzymatic inhibition JNK3): 90%
IC50 ([33]; ATP 10 μM, substrate ATF2 5 μM, read-out: JNK3 inhibitory activity IC50): 9.7 nM
inhibition at 1 µM [34]: 18.3%
Compound: O=C(C1CC1)N1CCC[C@H](Nc2nccc(-n3c(-c4ccc5c(c4)OCCO5)nc4cc(O)c(O)cc43)n2)C1 [35b, (S)-Cyclopropyl(3-((4-(2-(2,3-dihydrobenzo[b][1,4]dioxin-6-yl)-5,6-dihydroxy-1H-benzo[d]imidazol-1-yl)pyrimidin-2-yl)amino)piperidin-1-yl)methanone]
